Measured values as given in ChEMBL document CHEMBL4842359, “1,3-Diarylpyrazolyl-acylsulfonamides as Potent Anti-tuberculosis Agents Targeting Cell Wall Biosynthesis in Mycobacterium tuberculosis” (J Med Chem, 2021).
Converted amounts (≈) assume the structure as drawn.

Columns and labels:
[1] = Metabolic stability in mouse liver microsomes assessed as compound remaining at 1 uM by LC-MS/MS analysis; format: ADME, Microsome; details: microsomes, 1 µM
[2] = Plasma protein binding in human assessed as unbound fraction at 5 uM by LC-MS/MS analysis; format: ADME, cell-free; details: 5 µM
[3] = Terminal half life in iv dosed C57BL/6 mouse measured up to 24 hrs by LC-MS/MS analysis; format: ADME, organism-based; details: mouse, in vivo, 24 h
[4] = system: Mycobacterium tuberculosis; assay: microbe, parasite or virus in culture; details: H37Rv, 336 h
Description: Antimycobacterial activity against Mycobacterium tuberculosis H37Rv in presence of middlebrook 7H9/glucose/BSA/tyloxapol medium measured after 14 days by bioluminescence reporter assay

[5] = Lipophilicity, logD of the compound at pH 7.4 by HPLC-DAD analysis; format: physicochemical; details: buffer
[6] = Thermodynamic solubility of compound at pH 7.4 aqueous phosphate buffer
[7] = Metabolic stability in human liver microsomes assessed as compound remaining at 1 uM by LC-MS/MS analysis; format: ADME, Microsome; details: microsomes, 1 µM
[8] = Unbound clearance in iv dosed C57BL/6 mouse measured up to 24 hrs by LC-MS/MS analysis; format: ADME, organism-based; details: in vivo
[9] = AUC (0 to t) in iv dosed C57BL/6 mouse measured up to 24 hrs by LC-MS/MS analysis; format: ADME, organism-based; set-up: time <=24; details: in vivo
[10] = Metabolic stability in rat liver microsomes assessed as compound remaining at 1 uM by LC-MS/MS analysis; format: ADME, Microsome; details: microsomes, 1 µM
[11] = Volume of distribution in iv dosed C57BL/6 mouse measured up to 24 hrs by LC-MS/MS analysis; format: ADME, organism-based; details: C57BL/6, mouse, in vivo, read-out: Vd

Compound: CS(=O)(=O)NC(=O)/C=C/c1cn(-c2ccc(Cl)cc2)nc1-c1ccncc1
- Stabilty [1]: 85%
- Fu [2]: 0.015 fraction
- beta t1/2 [3]: 1.1 h
- MIC [4]: 4.7 µM (≈ 1.89 µg/mL)
- logD [5]: 0.98
- solubility thermodynamic [6]: 90 µM (≈ 36.3 µg/mL)
- Stabilty [7]: 88%
- CL free [8]: > 1200 L/h/kg
- AUCt [9]: 8.7 µmol·min/L
- Stabilty [10]: 82%

Compound: CS(=O)(=O)NC(=O)CCc1cn(-c2ccc(C(F)(F)F)cc2)nc1-c1ccc(Cl)cc1
- MIC [4]: 3.1 µM (≈ 1.46 µg/mL)
- solubility thermodynamic [6]: 50 µM (≈ 23.6 µg/mL)

Compound: CS(=O)(=O)NC(=O)CCc1cc(-c2ccc(Br)cc2)n(-c2ccc(Cl)cc2)n1
- MIC [4]: > 50 µM
- solubility thermodynamic [6]: 170 µM (≈ 82.1 µg/mL)

Compound: O=c1[nH]c(CCc2cn(-c3ccc(Br)cc3)nc2-c2ccc(Cl)cc2)no1
- MIC [4]: 50 µM (≈ 22.3 µg/mL)
- solubility thermodynamic [6]: < 5 µM

Compound: O=C(O)CCc1cn(-c2ccc(Br)cc2)nc1-c1ccc(Cl)cc1
- MIC [4]: > 50 µM
- solubility thermodynamic [6]: 155 µM (≈ 62.9 µg/mL)

Compound: CC(Cc1cn(-c2ccc(Cl)cc2)nc1-c1ccncc1)C(=O)NS(C)(=O)=O (stereo unspecified)
- MIC [4]: > 50 µM
- solubility thermodynamic [6]: 190 µM (≈ 79.6 µg/mL)

Compound: CS(=O)(=O)NC(=O)CCc1cn(-c2ccccc2)nc1-c1ccc(Cl)cc1
- MIC [4]: > 50 µM
- solubility thermodynamic [6]: 200 µM (≈ 80.8 µg/mL)

Compound: CS(=O)(=O)NC(=O)CCc1cn(-c2ccc(Br)cc2)nc1-c1ccccc1
- MIC [4]: 2.3 µM (≈ 1.03 µg/mL)
- solubility thermodynamic [6]: 200 µM (≈ 89.7 µg/mL)

Compound: CS(=O)(=O)NC(=O)CCc1cn(-c2ccc(Br)cc2)nc1-c1cnccn1
- MIC [4]: 20 µM (≈ 9.01 µg/mL)
- solubility thermodynamic [6]: 196 µM (≈ 88.3 µg/mL)

Compound: CCS(=O)(=O)NC(=O)CCc1cn(-c2ccc(Br)cc2)nc1-c1ccc(Cl)cc1
- solubility thermodynamic [6]: 10 µM (≈ 4.97 µg/mL)

Compound: CS(=O)(=O)NC(=O)CCc1cn(-c2cccc(Br)c2)nc1-c1ccc(Cl)cc1
- MIC [4]: > 50 µM
- solubility thermodynamic [6]: < 5 µM

Compound: CS(=O)(=O)NC(=O)CCc1cc(-c2ccc(Cl)cc2)nn1-c1ccc(F)cc1
- MIC [4]: 5.5 µM (≈ 2.32 µg/mL)
- solubility thermodynamic [6]: 195 µM (≈ 82.3 µg/mL)

Compound: O=c1[nH]nc(CCc2cn(-c3ccc(Br)cc3)nc2-c2ccc(Cl)cc2)o1
- MIC [4]: 19 µM (≈ 8.47 µg/mL)
- solubility thermodynamic [6]: < 5 µM

Compound: CS(=O)(=O)NC(=O)CCc1cn(-c2ccc(Br)cc2)nc1Cc1ccccc1
- MIC [4]: > 50 µM
- solubility thermodynamic [6]: 200 µM (≈ 92.5 µg/mL)

Compound: CS(=O)(=O)NC(=O)NCc1cc(-c2ccc(Br)cc2)oc1-c1ccncc1
- Stabilty [1]: 85%
- logD [5]: 0.36
- solubility thermodynamic [6]: 25 µM (≈ 11.3 µg/mL)
- Stabilty [7]: 98%
- CL free [8]: > 1200 L/h/kg
- AUCt [9]: 20 µmol·min/L
- Stabilty [10]: 87%

Compound: CS(=O)(=O)NC(=O)NCc1cn(-c2ccc(C(F)(F)F)nc2)nc1-c1ccncc1
- solubility thermodynamic [6]: 195 µM (≈ 85.9 µg/mL)

Compound: CS(=O)(=O)NC(=O)CCc1cn(-c2ccc(Br)cc2)nc1-c1ccc([N+](=O)[O-])cc1
- solubility thermodynamic [6]: < 5 µM

Compound: CS(=O)(=O)NC(=O)CCc1nn(-c2ccc(Br)cc2)cc1-c1ccc(Cl)cc1
- MIC [4]: 37 µM (≈ 17.9 µg/mL)
- solubility thermodynamic [6]: 135 µM (≈ 65.2 µg/mL)

Compound: C[S+]([O-])c1ccc(-n2cc(CCC(=O)NS(C)(=O)=O)c(-c3ccc(Cl)cc3)n2)cc1 (stereo unspecified)
- MIC [4]: ≥ 50 µM
- solubility thermodynamic [6]: 200 µM (≈ 93.2 µg/mL)

Compound: CS(=O)(=O)NC(=O)OCc1cn(-c2ccc(Cl)cc2)nc1-c1ccncc1
- Stabilty [1]: 98%
- Fu [2]: 0.03 fraction
- beta t1/2 [3]: 5.8 h
- MIC [4]: 123 µM (≈ 50 µg/mL)
- logD [5]: 2.73
- Stabilty [7]: 97%
- CL free [8]: > 1200 L/h/kg
- Vd [11]: 0.1 L/kg
- AUCt [9]: 22 µmol·min/L
- Stabilty [10]: 97%

Compound: CS(=O)(=O)NC(=O)CCCc1cn(-c2ccc(Br)cc2)nc1-c1ccc(Cl)cc1
- MIC [4]: 37 µM (≈ 18.4 µg/mL)
- solubility thermodynamic [6]: 135 µM (≈ 67.1 µg/mL)

Compound: CS(=O)(=O)NC(=O)CCn1nc(-c2ccc(Cl)cc2)cc1-c1ccc(Cl)cc1
- MIC [4]: > 50 µM
- solubility thermodynamic [6]: 200 µM (≈ 87.7 µg/mL)

Compound: CS(=O)(=O)NC(=O)C1CC1c1cn(-c2ccc(Cl)cc2)nc1-c1ccncc1 (stereo unspecified)
- Stabilty [1]: 96%
- Fu [2]: 0.01 fraction
- beta t1/2 [3]: 0.9 h
- MIC [4]: 19 µM (≈ 7.92 µg/mL)
- logD [5]: 1.06
- solubility thermodynamic [6]: 200 µM (≈ 83.4 µg/mL)
- Stabilty [7]: > 99%
- CL free [8]: > 1200 L/h/kg
- AUCt [9]: 21 µmol·min/L
- Stabilty [10]: 92%

Compound: CS(=O)(=O)NC(=O)NCc1cn(-c2ccc(Cl)cc2)nc1-c1ccc(Cl)cc1
- MIC [4]: 3.13 µM (≈ 1.38 µg/mL)
- solubility thermodynamic [6]: < 5 µM

Compound: CC(CC(=O)NS(C)(=O)=O)c1cn(-c2ccc(Cl)cc2)nc1-c1ccncc1 (stereo unspecified)
- MIC [4]: 50 µM (≈ 20.9 µg/mL)
- solubility thermodynamic [6]: 170 µM (≈ 71.2 µg/mL)

Compound: CN(C(=O)CCc1cn(-c2ccc(Br)cc2)nc1-c1ccc(Cl)cc1)S(C)(=O)=O
- MIC [4]: > 50 µM
- solubility thermodynamic [6]: < 5 µM

Compound: CS(=O)(=O)NC(=O)CCc1cn(C2CCCCC2)nc1-c1ccc(Cl)cc1
- MIC [4]: > 50 µM
- solubility thermodynamic [6]: 200 µM (≈ 82 µg/mL)

Compound: O=C1NC(=O)C(Cc2cn(-c3ccc(Cl)cc3)nc2-c2ccc(Cl)cc2)C(=O)N1
- MIC [4]: > 50 µM

Compound: CS(=O)(=O)NC(=O)CCc1oc(-c2ccc(Cl)cc2)nc1-c1ccc(Cl)cc1
- MIC [4]: 37 µM (≈ 16.3 µg/mL)
- solubility thermodynamic [6]: 200 µM (≈ 87.9 µg/mL)

Compound: CS(=O)(=O)NC(=O)CCc1cn(-c2ccc(Cl)cc2)nc1-c1ccccc1Cl
- MIC [4]: > 50 µM
- solubility thermodynamic [6]: 90 µM (≈ 39.5 µg/mL)

Compound: CS(=O)(=O)NC(=O)CCc1cn(-c2ccc(Br)cc2)nc1C1CCCCC1
- MIC [4]: 9.4 µM (≈ 4.27 µg/mL)
- solubility thermodynamic [6]: 60 µM (≈ 27.3 µg/mL)

Compound: CS(=O)(=O)NC(=O)CCc1cn(-c2ccc(Br)cc2)nc1-c1cccc(Cl)c1
- solubility thermodynamic [6]: 165 µM (≈ 79.7 µg/mL)

Compound: CS(=O)(=O)NC(=O)CCc1cn(-c2ccccc2Br)nc1-c1ccc(Cl)cc1
- MIC [4]: > 50 µM
- solubility thermodynamic [6]: 165 µM (≈ 79.7 µg/mL)

Compound: CS(=O)(=O)NC(=O)C1CC1c1cn(-c2ccc(Br)cc2)nc1-c1ccncc1 (stereo unspecified)
- MIC [4]: 12.5 µM (≈ 5.77 µg/mL)
- solubility thermodynamic [6]: 155 µM (≈ 71.5 µg/mL)

Compound: O=C(CCc1cn(-c2ccc(Br)cc2)nc1-c1ccc(Cl)cc1)NS(=O)(=O)C1CC1
- MIC [4]: > 50 µM
- solubility thermodynamic [6]: 5 µM (≈ 2.54 µg/mL)

Compound: CC(=O)NS(=O)(=O)CCc1cn(-c2ccc(Br)cc2)nc1-c1ccc(Cl)cc1
- MIC [4]: > 50 µM
- solubility thermodynamic [6]: 165 µM (≈ 79.7 µg/mL)

Compound: CS(=O)(=O)NC1=NOC(c2cn(-c3ccc(Cl)cc3)nc2-c2ccc(Cl)cc2)C1 (stereo unspecified)
- MIC [4]: 25 µM (≈ 11.3 µg/mL)
- solubility thermodynamic [6]: 175 µM (≈ 79 µg/mL)

Compound: CS(=O)(=O)NC(=O)CCc1cn(-c2ccc(F)cc2)nc1-c1ccc(Cl)cc1
- MIC [4]: 37 µM (≈ 15.6 µg/mL)
- solubility thermodynamic [6]: 25 µM (≈ 10.5 µg/mL)

Compound: CS(=O)(=O)NC(=O)CCc1sc(-c2ccc(Cl)cc2)nc1-c1ccc(Cl)cc1
- MIC [4]: 19 µM (≈ 8.65 µg/mL)
- solubility thermodynamic [6]: 90 µM (≈ 41 µg/mL)

Compound: CS(=O)(=O)NC(=O)CCc1cn(-c2ccc(Br)cc2)nc1C1CCNCC1
- MIC [4]: > 50 µM
- solubility thermodynamic [6]: 196 µM (≈ 89.3 µg/mL)

Compound: CS(=O)(=O)NC(=O)Cc1cn(-c2ccc(Br)cc2)nc1-c1ccc(Cl)cc1
- MIC [4]: > 50 µM

Compound: CS(=O)(=O)NC(=O)CCc1cn(-c2ccc(Br)cc2)nc1-c1ccc(N)cc1
- MIC [4]: 25 µM (≈ 11.6 µg/mL)
- solubility thermodynamic [6]: 160 µM (≈ 74.1 µg/mL)

Compound: Clc1ccc(-c2nn(-c3ccc(Br)cc3)cc2CCc2nnn[nH]2)cc1
- MIC [4]: > 50 µM
- solubility thermodynamic [6]: 150 µM (≈ 64.5 µg/mL)

Compound: CS(=O)(=O)NC(=O)CCc1cn(-c2ccc(C#N)cc2)nc1-c1ccc(Cl)cc1
- MIC [4]: 25 µM (≈ 10.7 µg/mL)
- solubility thermodynamic [6]: 75 µM (≈ 32.2 µg/mL)

Compound: CS(=O)(=O)NCCCc1cn(-c2ccc(Br)cc2)nc1-c1ccc(Cl)cc1
- MIC [4]: > 50 µM
- solubility thermodynamic [6]: < 5 µM

Compound: CNC(=O)CCc1cn(-c2ccc(Br)cc2)nc1-c1ccc(Cl)cc1
- MIC [4]: > 50 µM
- solubility thermodynamic [6]: < 5 µM

Compound: CS(=O)(=O)NC(=O)/C=C/c1cn(-c2ccc(Br)cc2)nc1-c1ccncc1
- MIC [4]: 12 µM (≈ 5.37 µg/mL)
- solubility thermodynamic [6]: 115 µM (≈ 51.4 µg/mL)

Compound: CS(=O)(=O)NC(=O)CCc1cn(-c2ccncc2)nc1-c1ccc(Cl)cc1
- MIC [4]: > 50 µM
- solubility thermodynamic [6]: 190 µM (≈ 76.9 µg/mL)

Compound: CS(=O)(=O)NC(=O)CCc1cn(-c2ccc(Br)cc2)nc1C1CCN(C=O)CC1
- MIC [4]: 50 µM (≈ 24.2 µg/mL)
- solubility thermodynamic [6]: 200 µM (≈ 96.7 µg/mL)
